This data set is described as follows: Particle size distribution of zaleplon particles by laser diffraction (Malvern Mastersizer). The format is physicochemical. The note with it: suspended in hexane with 1% Tween 80, sonicated 120 seconds. The method, then: In accordance with the invention, the size distribution of zaleplon particles is determined by laser diffraction. Our method of determining the size of zaleplon particles used a Malvern™ Mastersizer laser diffraction instrument. Samples of the zaleplon were suspended in hexane containing a surfactant, 1% Tween® 80. The suspensions were mixed and then sonicated for 120 seconds to thoroughly disperse the zaleplon particles. The dispersion was then circulated in the flow cell of the Malvern Mastersizer for two minutes before particle size measurements were taken.

As to `CCN(C(C)=O)c1cccc(-c2ccnc3c(C#N)cnn23)c1` [micronized zaleplon, N-[3-(3-cyanopyrazolo[1,5-a]pyrimidin-7-yl)phenyl]-N-ethylacetamide], the “diameter that 90% of the particles are equal to or less than” value is listed as 15.1 μm and the median particle size is given as 6.3 μm.

Take `CCN(C(C)=O)c1cccc(-c2ccnc3c(C#N)cnn23)c1` [Zaleplon, N-[3-(3-cyanopyrazolo[1,5-a]pyrimidin-7-yl)phenyl]-N-ethylacetamide]: the “diameter that 10% of the particles are equal to or less than” value stood at 14 μm, the “diameter that 90% of the particles are equal to or less than” value came to 134 μm and the median particle size is 55 μm.

As to `CCN(C(C)=O)c1cccc(-c2ccnc3c(C#N)cnn23)c1` [milled zaleplon, N-[3-(3-cyanopyrazolo[1,5-a]pyrimidin-7-yl)phenyl]-N-ethylacetamide], the “diameter that 10% of the particles are equal to or less than” value is listed as 8.3 μm, the “diameter that 90% of the particles are equal to or less than” value turned out to be 84.6 μm and the median particle size is given as 37.0 μm.

For the origin of these results see patent publication US20050119281A1, “Powder composition comprising zaleplon of defined particle size distribution and pharmaceutical products made therefrom” (Biogal Gyogyszergyar Rt, priority 2002, published 2005).
